# Experimental data published in patent US20040229791A1, “Compositions and methods of modulating TGF-beta activity by fatty acids” (priority 2002, published 2004).
# pIC50: −log10 of the molar value.
# Experiments:
# Format in all cases: binding
# [1] = biological target: T1, 125I-TGF-β2-α2M* complex (Homo sapiens, UniProt P01023); assay: Dissociation of preformed 125I-TGF-β2-α2M* complex; conditions: at 250 μM
# T1 construct: was purified from pooled citrate-treate human plasma; from tissue; host or cells: pooled citrate-treated human plasma
# T1 sequence (P01023 24-1474): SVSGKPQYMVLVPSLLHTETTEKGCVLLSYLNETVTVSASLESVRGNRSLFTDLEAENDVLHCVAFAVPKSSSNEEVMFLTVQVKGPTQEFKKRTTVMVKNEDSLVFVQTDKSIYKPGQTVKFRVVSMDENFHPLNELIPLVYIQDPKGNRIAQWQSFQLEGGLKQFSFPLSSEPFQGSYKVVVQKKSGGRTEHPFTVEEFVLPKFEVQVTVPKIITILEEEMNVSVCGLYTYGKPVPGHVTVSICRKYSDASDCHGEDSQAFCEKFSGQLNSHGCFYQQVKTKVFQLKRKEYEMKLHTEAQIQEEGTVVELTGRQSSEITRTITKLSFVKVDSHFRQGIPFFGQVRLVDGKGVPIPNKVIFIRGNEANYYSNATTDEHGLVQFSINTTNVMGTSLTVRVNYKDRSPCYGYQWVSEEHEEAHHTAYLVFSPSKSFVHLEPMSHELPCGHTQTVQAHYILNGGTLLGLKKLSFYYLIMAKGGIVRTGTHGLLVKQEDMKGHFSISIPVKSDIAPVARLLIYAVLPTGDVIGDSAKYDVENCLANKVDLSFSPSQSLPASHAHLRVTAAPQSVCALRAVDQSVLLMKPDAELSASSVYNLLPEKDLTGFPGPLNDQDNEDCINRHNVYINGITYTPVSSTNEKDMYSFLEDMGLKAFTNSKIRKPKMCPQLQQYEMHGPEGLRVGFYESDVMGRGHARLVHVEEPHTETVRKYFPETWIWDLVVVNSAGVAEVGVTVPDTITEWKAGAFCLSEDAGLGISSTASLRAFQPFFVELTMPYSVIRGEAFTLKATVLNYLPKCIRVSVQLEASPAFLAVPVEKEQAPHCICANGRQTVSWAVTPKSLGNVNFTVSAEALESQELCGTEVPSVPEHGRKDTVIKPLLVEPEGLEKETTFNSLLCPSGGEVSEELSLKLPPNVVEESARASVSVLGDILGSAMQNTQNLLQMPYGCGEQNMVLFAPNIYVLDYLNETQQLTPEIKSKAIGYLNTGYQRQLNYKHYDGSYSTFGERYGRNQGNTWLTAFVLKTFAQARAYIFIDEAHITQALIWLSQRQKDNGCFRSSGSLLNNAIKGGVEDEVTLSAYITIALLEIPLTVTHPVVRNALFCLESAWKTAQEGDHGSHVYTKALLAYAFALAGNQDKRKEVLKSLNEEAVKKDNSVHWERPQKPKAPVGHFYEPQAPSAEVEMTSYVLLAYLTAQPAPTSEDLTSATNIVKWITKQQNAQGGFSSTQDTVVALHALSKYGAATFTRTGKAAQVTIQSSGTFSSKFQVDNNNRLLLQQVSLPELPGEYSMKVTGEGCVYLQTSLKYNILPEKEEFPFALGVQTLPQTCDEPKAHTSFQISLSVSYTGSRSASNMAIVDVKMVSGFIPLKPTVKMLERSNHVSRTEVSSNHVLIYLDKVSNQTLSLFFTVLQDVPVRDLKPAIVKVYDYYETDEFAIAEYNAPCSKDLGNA
# [2] = biological target: T2, TGF-β1-α2M* complex (Homo sapiens, UniProt P01023); assay: Inhibition of 125I-TGF-β1 and α2M* complex formation (5% non-denaturing PAGE, autoradiography); conditions: ~1 nM 125I-TGF-β1, 10 μg α2M* in 0.05 ml, 30 min room temperature, non-denaturing PAGE; read-out: IC50 for inhibiting complex formation between TGF-β1 and α2M*
# T2 construct: was purified from pooled citrate-treate human plasma; from tissue; host or cells: pooled citrate-treated human plasma
# T2 sequence (P01023 24-1474): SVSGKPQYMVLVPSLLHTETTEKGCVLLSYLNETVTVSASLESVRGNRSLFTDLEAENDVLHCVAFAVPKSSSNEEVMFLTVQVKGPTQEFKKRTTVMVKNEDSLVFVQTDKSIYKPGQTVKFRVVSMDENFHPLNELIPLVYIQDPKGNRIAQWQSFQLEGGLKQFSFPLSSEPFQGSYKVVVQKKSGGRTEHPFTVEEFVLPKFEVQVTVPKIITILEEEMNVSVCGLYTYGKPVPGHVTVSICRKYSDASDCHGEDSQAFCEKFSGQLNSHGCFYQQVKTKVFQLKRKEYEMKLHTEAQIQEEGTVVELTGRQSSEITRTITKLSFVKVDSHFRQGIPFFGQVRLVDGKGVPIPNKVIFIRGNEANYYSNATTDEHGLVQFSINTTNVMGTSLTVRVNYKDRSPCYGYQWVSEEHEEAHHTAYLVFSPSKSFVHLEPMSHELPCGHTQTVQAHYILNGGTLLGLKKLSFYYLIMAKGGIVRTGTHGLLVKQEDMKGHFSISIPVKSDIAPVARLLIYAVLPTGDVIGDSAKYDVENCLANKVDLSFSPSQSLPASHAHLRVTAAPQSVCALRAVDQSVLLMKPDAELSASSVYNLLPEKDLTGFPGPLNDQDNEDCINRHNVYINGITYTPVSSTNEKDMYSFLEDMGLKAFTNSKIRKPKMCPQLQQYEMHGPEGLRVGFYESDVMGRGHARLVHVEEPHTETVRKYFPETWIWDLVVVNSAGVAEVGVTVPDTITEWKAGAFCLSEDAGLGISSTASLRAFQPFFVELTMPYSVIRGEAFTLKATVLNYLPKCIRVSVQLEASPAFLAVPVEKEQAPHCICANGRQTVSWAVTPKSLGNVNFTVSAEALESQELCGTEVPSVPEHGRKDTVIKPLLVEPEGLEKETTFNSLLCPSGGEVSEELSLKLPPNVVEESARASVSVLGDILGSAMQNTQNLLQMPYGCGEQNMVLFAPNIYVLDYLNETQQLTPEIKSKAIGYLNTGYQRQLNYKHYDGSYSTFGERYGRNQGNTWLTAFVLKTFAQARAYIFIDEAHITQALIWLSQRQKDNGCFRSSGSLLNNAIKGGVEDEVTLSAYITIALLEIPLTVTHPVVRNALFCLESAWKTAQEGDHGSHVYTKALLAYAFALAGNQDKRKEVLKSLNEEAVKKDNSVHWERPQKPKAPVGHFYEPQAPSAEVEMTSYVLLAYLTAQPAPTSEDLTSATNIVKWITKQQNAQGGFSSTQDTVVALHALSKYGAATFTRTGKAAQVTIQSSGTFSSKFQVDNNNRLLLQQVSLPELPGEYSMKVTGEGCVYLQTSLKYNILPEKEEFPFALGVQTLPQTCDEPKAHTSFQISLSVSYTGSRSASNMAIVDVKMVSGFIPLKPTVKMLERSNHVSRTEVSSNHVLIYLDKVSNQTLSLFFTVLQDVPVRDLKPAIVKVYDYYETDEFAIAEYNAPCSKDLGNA
# Procedure: Saturated and unsaturated fatty acids are present in plasma and tissues (25,26). The effects of various concentrations of saturated fatty acids on the formation of complexes between ^125I-TGF ? β1 and ? 2M* were examined. ^125I-TGF- ? 1 (1 nM) was incubated μg/ml) in the presence of various concentrations of n-caprylic acid ([…]), lauric acid (12 carbon atoms), myristic acid (14 carbon atoms), palmitic acid (16 carbon atoms) and stearic acid (18 carbon atoms). After 30 min at room temperature, the reaction mixture was analyzed by 5% non-denaturing PAGE and autoradiography, a standard method form determining complex formation between TGF-β and α2M* (12). […] At 100 μM, it inhibited 20% of the complex formation between TGF ? β1 and α2M*. Esterification consistently abolished the inhibitory activities of the fatty acids.
# Complex formation of ^125I-TGF-β and ? 2M*—The reaction mixture contained 10 μg of . α2M*, ˜1 nM of ^125I-TGF- ? 1, ^125I-TGF ? β2 or ^125I-TGF ? acids (dissolved in 100% ethanol) in 0.05 ml of 50 mM HEPES-NaOH buffer, pH 7.4. The final concentration of ethanol in the reaction mixture was 0.5%. These fatty acids and fatty acid derivatives were soluble under the experimental conditions. After 30 min at room temperature, the complex formation of ^125I-TGF- ? and. α2M* was determined by 5% non-denaturing polyacrylamide gel electrophoresis (PAGE) or by 7.5% SDS-PAGE following cross-linking by 0.6 mM DSS. After electrophoresis, the gel was stained with Coomassie blue and analyzed by autoradiography. The ^125I-TGF- ? - ? 2M* complex which co-migrated with free ? 2M* was quantified using a PhosphoImager (Fuji).
# [3] = biological target: T3, TGF-β3-α2M* complex (Homo sapiens, UniProt P01023); assay: Inhibition of 125I-TGF-β3 and α2M* complex formation (5% non-denaturing PAGE); conditions: 30% inhibition
# T3 construct: was purified from pooled citrate-treate human plasma; from tissue; host or cells: pooled citrate-treated human plasma
# T3 sequence (P01023 24-1474): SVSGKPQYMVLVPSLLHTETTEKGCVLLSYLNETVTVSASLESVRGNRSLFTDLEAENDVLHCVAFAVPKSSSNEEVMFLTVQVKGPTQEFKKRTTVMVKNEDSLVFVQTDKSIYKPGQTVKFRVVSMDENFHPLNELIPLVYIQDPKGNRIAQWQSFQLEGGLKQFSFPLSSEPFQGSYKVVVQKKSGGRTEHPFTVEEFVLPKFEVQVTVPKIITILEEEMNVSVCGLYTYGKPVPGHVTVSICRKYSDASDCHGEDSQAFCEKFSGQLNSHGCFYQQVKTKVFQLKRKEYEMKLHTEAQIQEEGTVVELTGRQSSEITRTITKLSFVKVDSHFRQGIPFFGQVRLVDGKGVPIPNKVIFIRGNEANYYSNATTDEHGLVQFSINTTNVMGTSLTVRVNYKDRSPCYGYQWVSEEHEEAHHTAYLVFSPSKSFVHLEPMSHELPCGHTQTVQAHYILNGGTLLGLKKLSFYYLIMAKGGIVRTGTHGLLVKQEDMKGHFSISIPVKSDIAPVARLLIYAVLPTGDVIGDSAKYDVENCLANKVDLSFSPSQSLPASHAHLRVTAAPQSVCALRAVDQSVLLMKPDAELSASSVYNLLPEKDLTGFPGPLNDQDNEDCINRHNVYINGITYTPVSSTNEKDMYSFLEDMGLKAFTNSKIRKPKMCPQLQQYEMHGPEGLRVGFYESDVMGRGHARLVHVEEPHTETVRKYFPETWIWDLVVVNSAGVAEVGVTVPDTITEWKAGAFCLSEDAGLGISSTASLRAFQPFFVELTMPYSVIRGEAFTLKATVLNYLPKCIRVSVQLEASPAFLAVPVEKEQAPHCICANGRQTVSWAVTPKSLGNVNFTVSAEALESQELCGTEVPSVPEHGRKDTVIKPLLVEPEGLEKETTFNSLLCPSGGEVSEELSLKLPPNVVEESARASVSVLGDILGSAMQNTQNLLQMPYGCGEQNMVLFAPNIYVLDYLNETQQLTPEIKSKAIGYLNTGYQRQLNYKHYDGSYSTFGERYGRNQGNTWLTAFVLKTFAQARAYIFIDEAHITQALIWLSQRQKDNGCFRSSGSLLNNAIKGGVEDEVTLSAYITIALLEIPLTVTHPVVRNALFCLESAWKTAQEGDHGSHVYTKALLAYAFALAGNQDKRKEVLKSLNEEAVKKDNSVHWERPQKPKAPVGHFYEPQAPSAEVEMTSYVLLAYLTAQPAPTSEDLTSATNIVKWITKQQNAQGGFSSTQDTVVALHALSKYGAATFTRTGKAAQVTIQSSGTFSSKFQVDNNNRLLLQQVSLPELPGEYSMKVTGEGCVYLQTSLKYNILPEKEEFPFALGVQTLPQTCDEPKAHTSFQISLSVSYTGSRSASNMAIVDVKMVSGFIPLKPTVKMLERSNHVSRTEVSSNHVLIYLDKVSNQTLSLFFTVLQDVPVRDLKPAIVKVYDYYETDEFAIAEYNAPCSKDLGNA
# Procedure: TGF- ? isoforms bind to α2M* with different affinities: TGF ? β2>TGF ? β1 ( active sites of TGF ? β1 and TGF- ? 2 responsible for high-affinity binding to ? 2M* are disti from the low-affinity ? 2M* binding site in TGF- ? 3 (19). To determine if fatty acids differentially affect the binding of TGF- ? isoforms to ? 2M*, the effects of various concentrations of arachidonic acid and myristic acid on complex formation of ^125I-labeled TGF ? β isoforms and ? 2M were determined*. […] It inhibited 30% of the complex form . α2M* and TGF ? β2 and TGF ? β3 at 100 and >250 μM, respectively. Arachidon polyunsaturated fatty acid, was a stronger inhibitor of complex formation of ? 2M* and TGF-.β2/TGF ? β3. It inhibited 50% of the complex formation of ? 2M* and ^125I-TGF- ? 2 at 50 μM (FIG. 3A). The observation that myristic acid and arachidonic acid inhibited complex formation of ^125I-TGF- ? […] 2M* complexes in the reaction mixtures were then analyzed by 7.5% SDS-PAGE and autoradiography.
# Complex formation of ^125I-TGF-β and ? […] After 30 min at room temperature, the complex formation of ^125I-TGF- ? and. α2M* was determined by 5% non-denaturing polyacrylamide gel electrophoresis (PAGE) or by 7.5% SDS-PAGE following cross-linking by 0.6 mM DSS. After electrophoresis, the gel was stained with Coomassie blue and analyzed by autoradiography. […] 2M* was quantified using a PhosphoImager (Fuji).
smiles,measurement,setting,value
CCCCCCCCCCCCCC(=O)O [myristic acid],dissociation of the 125I-TGF-β2-α2M* complex,[1],inactive
same,pIC50,[2],5.04
same,concentration that inhibited 30% of the complex formation of α2M* and TGF-β3,[3],> 250 µM
